Measured values taken from patent publication US20260041741A1, “CD39 AND CD73 FOR THE THERAPY OF HEMORRHAGIC SHOCK” (The Trustees of Columbia University in the City of New York, priority 2023, published 2026).

B1: rhCD73: recombinant human (rh) CD73 from Daresbury Proteins; CD73 mimic (protein, UniProt P21589 27-549, looked up)
5'-nucleotidase: WELTILHTNDVHSRLEQTSEDSSKCVNASRCMGGVARLFTKVQQIRRAEPNVLLLDAGDQYQGTIWFTVYKGAEVAHFMNALRYDAMALGNHEFDNGVEGLIEPLLKEAKFPILSANIKAKGPLASQISGLYLPYKVLPVGDEVVGIVGYTSKETPFLSNPGTNLVFEDEITALQPEVDKLKTLNVNKIIALGHSGFEMDKLIAQKVRGVDVVVGGHSNTFLYTGNPPSKEVPAGKYPFIVTSDDGRKVPVVQAYAFGKYLGYLKIEFDERGNVISSHGNPILLNSSIPEDPSIKADINKWRIKLDNYSTQELGKTIVYLDGSSQSCRFRECNMGNLICDAMINNNLRHTDEMFWNHVSMCILNGGGIRSPIDERNNGTITWENLAAVLPFGGTFDLVQLKGSTLKKAFEHSVHRYGQSTGEFLQVGGIHVVYDLSRKPGDRVVKLDVLCTKCRVPSYDPLKMDEVYKVILPNFLANGGDGFQMIKDELLRHDSGDQDINVVSTYISKMKVIYPAVEGRIKFS

What was measured:
[1] = test system: rat model of T/HS; conditions: posttreatment; cited from earlier work
[2] = test system: hypoxic CD73 deficient mice; conditions: exogenous administration; cited from earlier work
[3] = test system: T/HS mice; assay: Pulmonary neutrophil sequestration (lung MPO activity) after trauma/hemorrhagic shock; type: in vivo; conditions: for neutrophil infiltration (lung MPO activity): NECA pretreatment 0.0025 mg/kg; for neutrophil sequestration / infiltration in lung (MPO activity): wild-type T/HS mice vs vehicle, i.p. pretreatment 30 min before shock, POM1 5 mg/kg, apyrase 125 U/kg, PSB 12379 50 mg/kg, rhCD73 2 mg/kg
Protocol: (§1) In one set of studies, wild-type mice were randomly assigned into the following groups: trauma/sham shock (T/SS) receiving vehicle (saline), trauma/hemorrhagic shock (T/HS) receiving vehicle (saline), T/HS receiving POM1 (5 mg/kg), T/HS receiving apyrase (125 U/kg), T/HS receiving PSB 12379 (50 mg/kg), and T/HS receiving rhCD73 (2 mg/kg). In addition, in another group of studies, CD39^−/−, CD73^−/−, A2BAR^−/− and wild-type type mice were subjected to T/SS or T/HS. Some CD39^−/− and CD73^−/− were pretreated with NECA (0.0025 mg/kg). In pharmacological experiments, mice were pretreated intraperitoneally (30 min before T/SS or T/HS) with various agents.
(§2) The mice were given anesthesia using 1% isoflurane and their rectal temperature was maintained between 36.5 and 37.5° C. using a feedback-controlled homeothermic blanket heating system (Sumno-suite, Kent Scientific). Hemorrhagic shock was induced using a fixed-pressure model. Initially, a midline laparotomy of 2 cm was performed on the anesthetized mice, which was later closed with a 4-0 silk suture (034902, Covetrus, USA). Following this, catheters were placed in the right and left femoral arteries for monitoring blood pressure and blood withdrawal, respectively. A sterile 1-ml syringe with a 30G needle attached to PE-10 tubing filled with 0.2 ml of 1% heparinized saline was used for blood withdrawal, and each mouse received 1U heparin. Blood pressure was monitored using a continuous blood-pressure monitoring system (Powerlab 8/30, ADInstruments, Colorado Springs, CO, USA). After 5 minutes of baseline blood pressure recording, a drug or vehicle was administered to the mice, followed by inducing shock for a period of 2.5 hours, during which the blood pressure was maintained between 28-32 mmHg by withdrawing or reinfusing the shed blood. At the end of the shock period, the mice were resuscitated with Ringer's Lactate at three times the amount of shed blood for 15 minutes (32). Three hours after resuscitation, the mice were euthanized and bronchoalveolar lavage fluid (BALF), blood, and tissue samples were collected. T/SS animals were exposed to the same procedures as other animals except for blood withdrawal (FIG. 1).
Lung, liver, kidney, and gut samples were pooled from 4 mice in the same group, homogenized, sonicated, and treated with a 1×RIPA Buffer with Protease/phosphatase inhibitor cocktail (P8340, Sigma, USA), and the resulting homogenate was centrifuged at 13.000× g for 10 minutes at 4° C. Total protein content was determined by using Qubit 4.0 Fluorometer (Thermo Fisher, USA) as per the manufacturer's instructions.
To evaluate neutrophil sequestration in the lung following T/SS or T/HS, myeloperoxidase (MPO) activity was assessed using an MPO activity kit (MAK068, Sigma, USA). The supernatant of lung lysates was assayed according to the manufacturer's instructions (32).

[4] = test system: T/HS mice; assay: Lung permeability (Evans blue dye) after trauma/hemorrhagic shock; type: in vivo; conditions: wild-type T/HS mice vs vehicle; i.p. pretreatment 30 min before shock; POM1 5 mg/kg, apyrase 125 U/kg, PSB 12379 50 mg/kg, rhCD73 2 mg/kg
Protocol: as §1, §2
Mice were re-anesthetized with isoflurane 3 hours after the end of resuscitation. Evans blue dye (EBD) technique was used to determine lung permeability. EBD was administered through the tail vein, and about 1 ml of blood was withdrawn from the tail artery five minutes later. The supernatant of BALF was assayed at 620 nm spectrophotometrically. The amount of Evans blue dye in the BALF was then expressed as a proportion of the amount in the plasma. (5, 32).

[5] = test system: T/HS mice; assay: Plasma AST and ALT levels (liver injury) after trauma/hemorrhagic shock; type: in vivo; conditions: for T/HS-enhanced ALT level in plasma / T/HS-enhanced AST level in plasma: wild-type T/HS mice vs vehicle, i.p. pretreatment 30 min before shock; for liver injury: T/HS mice
Protocol: as §1, §2
Plasma samples were analyzed to determine the levels of aspartate aminotransferase (AST) and alanine aminotransferase (ALT). To do this, the samples were diluted with AST (TR70121 Thermo Fisher, USA) and ALT (TR71122 Thermo Fisher, USA) reagents at a 1:10 ratio, and the resulting light signal was measured using a spectrophotometer at 340 and 405 nm (32).

[6] = test system: T/HS mice; assay: Plasma IL-6 and IL-10 by ELISA after trauma/hemorrhagic shock; type: in vivo; conditions: T/HS mice compared to vehicle-treated T/HS mice
Protocol: as §1, §2
IL-6 and IL-10 levels were measured in plasma samples using enzyme-linked immunosorbent assay (ELISA) kits (DY406, DY417; R&D Systems Minneapolis, USA) according to the manufacturer's instructions (32).

[7] = test system: CD39 deficient mice; conditions: cardiac, renal, hepatic, intestinal ischemia-reperfusion, exogenous supplementation; cited from earlier work

Molecule | lung permeability [1] | neutrophil infiltration into the lung [1] | increased vascular permeability [2] | polymorphonuclear neutrophil extravasation [2] | neutrophil infiltration (lung MPO activity) ([3]; CD39-/- mice after T/HS) | neutrophil infiltration (lung MPO activity) ([3]; CD73-/- mice after T/HS) | T/HS-induced lung injury (lung permeability, EBD method) [4] | neutrophil sequestration / infiltration in lung (MPO activity) [3] | T/HS-enhanced ALT level in plasma [5] | T/HS-enhanced AST level in plasma [5] | plasma IL-6 levels [6] | plasma IL-10 levels [6] | liver injury [5] | increased ischemic organ injury [7]
N#Cc1c(N)nc(SCC(N)=O)c(C#N)c1-c1ccc(OCC2CC2)cc1 [BAY 60-6583] | decreases | not |  |  |  |  |  |  |  |  |  |  |  | 
CCNC(=O)[C@H]1O[C@@H](n2cnc3c(N)ncnc32)[C@H](O)[C@@H]1O [NECA, 1-(6-Amino-9H-purin-9-yl)-1-deoxy-N-ethyl-β-D-ribofuranuronamide] |  |  | reversed | reversed | decreased | decreased |  |  |  |  |  |  |  | 
O=P(O)(O)CP(=O)(O)OC[C@H]1O[C@@H](n2cnc3c(NCc4ccccc4)ncnc32)[C@H](O)[C@@H]1O.[Na].[Na] [PSB 12379, N6-Benzyl-α,β-methyleneadenosine 5′-diphosphate disodium salt] |  |  |  |  |  |  | increased | increased | increased | increased | increased | reduced |  | 
apyrase |  |  |  |  |  |  | moderated | moderated | suppressed | suppressed | lower | increased | decreased | reversed
sodium polyoxotungstate [POM1] |  |  |  |  |  |  | exacerbated | exacerbated | increased | increased | higher | similar |  | 
B1 |  |  |  |  |  |  | decreased | decreased | suppressed | suppressed | decreased | increased | decreased | 
